The text below walks through data of PubChem BioAssay (NCI).

Some test systems named below: CCRF-CEM leukemia; HCT-116 colon; RPMI-8226 leukemia; HOP-92 NSCLC; OVCAR-4 ovarian; NCI-H226 lung; EKVX NSCLC; PC-3 prostate; DU-145 prostate; MCF7 breast.
What all share (assay): DTP human tumour cell line panel, 48 h

Structures are written as SMILES. Values joined by “and” are separate entries in the source; they are usually repeats but may differ in a detail not shown here. Identical values can stand only once.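 Protocol summary: plate cells (96-well), add compound at 5 concentrations, incubate 48 h, interpolate endpoints linearly. GI50: concentration for 50% inhibition of growth. Definition used: TGI = concentration required for complete inhibition of growth.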 Bounds are passed on as bounds.

For the compound `CC(C)(C)C(=O)N1C(C(=O)O)Cc2ccccc2[C@@H]1Cc1ccccc1` (stereo not given in full), the TGI with CCRF-CEM leukemia, in the test with HCT-116 colon, with RPMI-8226 leukemia, in the test with HOP-92 NSCLC, in the test with OVCAR-4 ovarian and with NCI-H226 lung was above 100 µM each time. The compound also showed a TGI in the test with EKVX NSCLC above 100 µM.
Turning to `COC(=O)CCC(=O)Nc1ccc(Cl)cc1C`, the TGI in the test on CCRF-CEM leukemia, in the test on HCT-116 colon, with RPMI-8226 leukemia, in the test on HOP-92 NSCLC, in the test on OVCAR-4 ovarian and in the test on NCI-H226 lung was above 100 µM in each case. The compound further returned a TGI with EKVX NSCLC above 100 µM.
Consider `NC(=S)N/N=C/c1ccc(OC(=O)COc2cc(Cl)c(Cl)cc2Cl)cn1`, for which the GI50 is 4.59 µM with PC-3 prostate; 3.52 µM in the test on DU-145 prostate; 2.8 µM with CCRF-CEM leukemia; 4.25 µM with HCT-116 colon; 7.29 µM with RPMI-8226 leukemia; 1.54 µM with HOP-92 NSCLC. The GI50 was 4.83 µM in the test on OVCAR-4 ovarian, 15.8 µM in the test on NCI-H226 lung and 2.09 µM in the test with MCF7 breast. Besides, the TGI was above 100 µM with PC-3 prostate; 27.3 µM with DU-145 prostate; above 100 µM in the test with CCRF-CEM leukemia; above 100 µM in the test on HCT-116 colon; above 100 µM with RPMI-8226 leukemia; 26.6 µM in the test with HOP-92 NSCLC. For the same compound, the TGI in the test with OVCAR-4 ovarian is above 100 µM; with NCI-H226 lung it was 56.7 µM; in the test with MCF7 breast, above 100 µM.
On to `COc1ccc(/C=C/c2cc(OC)c(OC(C)=O)c(OC)c2)cc1`, for which the TGI with CCRF-CEM leukemia is above 100 µM; in the test with HCT-116 colon it was above 100 µM; in the test with RPMI-8226 leukemia, above 100 µM; with HOP-92 NSCLC it was 65.1 µM; in the test on OVCAR-4 ovarian, above 100 µM; in the test with NCI-H226 lung, 96.6 µM. This compound also registered a TGI with EKVX NSCLC above 100 µM.
For the compound `CCN(CC)CCN(CC)CC.CCN(CC)CCN(CC)CC.[Cu+2].[Cu+2].[O-][Cl+3]([O-])([O-])[O-].[OH3+].[OH3+]`, the GI50 in the test with CCRF-CEM leukemia was 37.6 µM; in the test on HCT-116 colon, 40.2 µM; in the test on RPMI-8226 leukemia it was 83.2 µM; with HOP-92 NSCLC, above 100 µM; with OVCAR-4 ovarian, 27.7 µM. The TGI is above 100 µM in the test on CCRF-CEM leukemia; above 100 µM in the test on HCT-116 colon; above 100 µM with RPMI-8226 leukemia; above 100 µM in the test on HOP-92 NSCLC; 51.2 µM in the test with OVCAR-4 ovarian.
With `CSC(=O)C[C@@]12O[C@@H]([C@@H](C)C3CCC4[C@@H]5C(O)CC6=CC(=O)C=C[C@]6(C)C5CC[C@@]43C)C[C@](C)(O1)C(C)(C)O2` (stereo not given in full), the TGI with CCRF-CEM leukemia was 19.1 µM; in the test on HCT-116 colon it was 26.4 µM; in the test with RPMI-8226 leukemia, 34.3 µM; with HOP-92 NSCLC, 23 µM; in the test with OVCAR-4 ovarian, 28.3 µM; in the test with NCI-H226 lung, 38.7 µM.
`Nc1ncc(-c2ccc3ncnc(Nc4cccc(Cl)c4)c3c2)cn1`: the GI50 is 1.48 µM with PC-3 prostate; 0.809 µM in the test on DU-145 prostate; 1.85 µM in the test on CCRF-CEM leukemia; 0.206 µM in the test with RPMI-8226 leukemia; 0.00741 µM in the test on HOP-92 NSCLC; 0.294 µM with NCI-H226 lung. In addition, the GI50 in the test with MCF7 breast was 0.186 µM. Further, the total growth inhibition concentration (TGI) was above 100 µM with PC-3 prostate, above 100 µM in the test with DU-145 prostate, above 100 µM in the test on CCRF-CEM leukemia and 0.0974 µM in the test on HOP-92 NSCLC.
In the case of `Cc1ccc(NCC2(/N=C/c3ccccc3)OC(CO)C(O)C2O)cc1` (stereo not given), the TGI with CCRF-CEM leukemia was 99.2 µM; in the test on HCT-116 colon, above 100 µM; in the test on RPMI-8226 leukemia it was above 100 µM; in the test with HOP-92 NSCLC, above 100 µM; in the test on OVCAR-4 ovarian it was above 100 µM; in the test with NCI-H226 lung, above 100 µM.
Regarding `C[C@@H]1C[C@H](N)C[C@H](c2ccncc2NC(=O)c2ccc(F)c(-c3c(F)cccc3F)n2)C1`, the GI50 in the test with PC-3 prostate is 3.83 µM and 2.68 µM; in the test on DU-145 prostate, 13.5 µM and > 10 µM; in the test with HCT-116 colon it was 12.1 µM and 6.94 µM; in the test on RPMI-8226 leukemia it was 0.592 µM and 0.939 µM; with OVCAR-4 ovarian, 9.39 µM and > 10 µM; in the test with EKVX NSCLC, 4.35 µM and > 10 µM. The GI50 in the test on MCF7 breast was 10.8 µM and > 10 µM. The TGI in the test on PC-3 prostate was 17.5 µM and > 10 µM; in the test with DU-145 prostate, 26.3 µM and > 10 µM; with HCT-116 colon, 24.4 µM and > 10 µM; in the test with RPMI-8226 leukemia it was 11.4 µM and > 10 µM; in the test on OVCAR-4 ovarian, 22 µM and > 10 µM; in the test on EKVX NSCLC, 21.1 µM and > 10 µM. In addition, in the test on MCF7 breast, the TGI was 25 µM and > 10 µM.
On to `CN(C)c1ccc(/C=c2\sc3nnc(-c4ccco4)n3c2=O)cc1`, for which the TGI in the test on CCRF-CEM leukemia, in the test with HCT-116 colon, in the test with RPMI-8226 leukemia, with HOP-92 NSCLC, with OVCAR-4 ovarian and in the test with NCI-H226 lung was above 100 µM throughout. Further, the total growth inhibition concentration (TGI) in the test with EKVX NSCLC was above 100 µM.
In the case of `Cc1ccc(/C=C/C(=O)c2ccc(Cl)c(Cl)c2)cc1`, the TGI in the test with CCRF-CEM leukemia, with HCT-116 colon, in the test with OVCAR-4 ovarian, with NCI-H226 lung and in the test on EKVX NSCLC was above 100 µM throughout.
In the case of `CCC[CH2][Sn](=[O])[CH2]CCC`, the GI50 is above 50 µM in the test with CCRF-CEM leukemia; above 50 µM with HCT-116 colon; above 50 µM with RPMI-8226 leukemia; 31.9 µM in the test with HOP-92 NSCLC; above 50 µM in the test with OVCAR-4 ovarian; above 50 µM in the test on NCI-H226 lung. In the test with EKVX NSCLC, the GI50 was above 50 µM. The TGI with CCRF-CEM leukemia, with HCT-116 colon, in the test with RPMI-8226 leukemia, with HOP-92 NSCLC, in the test with OVCAR-4 ovarian and in the test on NCI-H226 lung was above 50 µM in each case. This compound also registered a TGI in the test with EKVX NSCLC above 50 µM.
Regarding `CCCCCCCCCCCCSC(=S)c1c(C)[nH]n(-c2ccccc2)c1=O`, the TGI is 23.2 µM in the test on CCRF-CEM leukemia; above 50 µM in the test on RPMI-8226 leukemia; above 50 µM with HOP-92 NSCLC; above 50 µM in the test with OVCAR-4 ovarian; above 50 µM in the test with NCI-H226 lung; above 50 µM with EKVX NSCLC.
For `CC(=O)OC12C(C)=C(C)C(=O)N1c1ccccc1N2C(C)=O` (stereo not given), the TGI with CCRF-CEM leukemia, in the test on HCT-116 colon, in the test on RPMI-8226 leukemia, in the test on HOP-92 NSCLC, with OVCAR-4 ovarian and in the test on NCI-H226 lung was above 100 µM each time. Besides, the TGI in the test on EKVX NSCLC was above 100 µM.
With `NC(=S)N1N=C2CCCCCC[C@@H]2[C@H]1c1ccccc1`, the TGI with CCRF-CEM leukemia is above 100 µM; in the test with HCT-116 colon, above 100 µM; with RPMI-8226 leukemia it was 45 µM; with NCI-H226 lung it was above 100 µM; with EKVX NSCLC, above 100 µM.

In general, TGI refers to the concentration giving total growth inhibition. A higher TGI goes with less potent growth arrest. Broadly, the GI50 is the concentration at which growth is held to half of that of the control.
